Where a chain is given by its changes, count along the chain named. Structures can show the parent of a compound that is named as a salt. Values belong to the molecule of their own block, whether it stands above or below them.
Legend:
[1] = target: T1, MRGPRX2 N62S (Homo sapiens, UniProt Q96LB1, N62S); experiment: Calcium response dose-response curves in HEK293-Gα15 cells expressing MRGPRX2 N62S; assay type: cell-based; details: P=0.013, unpaired t-test
T1 construct: expressed in transfected cells
T1 sequence (Q96LB1 1-330 N62S): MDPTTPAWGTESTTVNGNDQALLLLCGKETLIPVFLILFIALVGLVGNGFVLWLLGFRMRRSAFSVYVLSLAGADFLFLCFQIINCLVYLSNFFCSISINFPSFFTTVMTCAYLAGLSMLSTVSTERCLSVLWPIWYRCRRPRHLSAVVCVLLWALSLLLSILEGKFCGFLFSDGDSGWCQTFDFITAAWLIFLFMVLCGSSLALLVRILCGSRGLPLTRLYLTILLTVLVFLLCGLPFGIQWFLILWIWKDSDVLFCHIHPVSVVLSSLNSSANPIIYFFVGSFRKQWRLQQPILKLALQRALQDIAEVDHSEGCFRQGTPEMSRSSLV

[2] = target: T2, MRGPRX2-MUT (MRGPRX2 N62S mutation) (Homo sapiens, UniProt Q96LB1, N62S); experiment: Primary HTS, Ca2+ mobilization (fluorescence ratio, B-score) in HEK293-Gα15 cells stably expressing the MRGPRX2 N62S mutation; assay type: cell-based; details: for B-scores (MUT): 10 μM compound, MRGPRX2-MUT (N62S) cells
T2 construct: expressed in transfected cells
T2 sequence (Q96LB1 1-330 N62S): T1 sequence (Q96LB1 1-330 N62S)

[3] = target: T3, MRGPRX2-WT (wild-type MRGPRX2 receptor) (Homo sapiens, UniProt Q96LB1); experiment: Primary HTS, Ca2+ mobilization (fluorescence ratio, B-score) in HEK293-Gα15 cells stably expressing wild-type MRGPRX2; assay type: cell-based; details: for B-scores (WT): 10 μM compound
T3 construct: expressed in transfected cells
T3 sequence (Q96LB1 1-330): T1 sequence (Q96LB1 1-330 N62S) with S62N

[4] = target: T4, MRGPRX2-WT (Homo sapiens, UniProt Q96LB1); experiment: Calcium response dose-response curves in HEK293-Gα15 cells expressing MRGPRX2-WT; assay type: cell-based
T4 construct: expressed in transfected cells
T4 sequence (Q96LB1 1-330): T1 sequence (Q96LB1 1-330 N62S) with S62N

[5] = system: HEK293-Gα15 cells without MRGPRX2; experiment: Calcium release in HEK293-Gα15 cells without MRGPRX2 (negative control screening); details: compared to MRGPRX2-WT or MRGPRX2-N62S cells, data not shown
[6] = system: MRGPRX2; details: weak agonist; cited from earlier work
[7] = system: LAD2 cells; experiment: β-hexosaminidase release (degranulation) in human mast cell line LAD2; assay type: cell-based; details: at 500 μM
Protocol: (§1) The human mast cell line LAD2 (Laboratory of Allergic Diseases-2) was obtained from Dean Metcalfe, MD (National Institute of Allergy and Infectious Diseases, National Institutes of Health, Bethesda, MD). […] We included two negative and two positive controls for the validation experiments in LAD2 cells. […] Additionally, vehicle control (without any drugs) was also included as the negative control. Drugs were dissolved in PBS (vehicle) and six concentrations were tested for each drug; the known MRGPRX2 agonist C48/80 (10 μg/mL) and Tween 20 (1%), which is a known mast cell activator via MRGPRX2 independent mechanism, were used as positive controls. Two-way ANOVA with the Sidak multiple comparisons test was used for statistical analysis (n=6).
(§2) We further investigated whether these newly discovered candidate drugs can serve as agonists for MRGPRX2-dependent activation of MCs.

[8] = system: MRGPRX2-deficient LAD2 cells; experiment: β-hexosaminidase release in MRGPRX2-deficient LAD2 cells (CRISPR/Cas9); assay type: cell-based, human; details: two-way ANOVA, P< 0.0001
Protocol: as §1, §2

Molecule: COc1cccc2c1C(=O)c1c(O)c3c(c(O)c1C2=O)C[C@@](O)(C(C)=O)C[C@@H]3O[C@H]1C[C@H](N)[C@H](O)[C@H](C)O1 [Daunorubicin Hydrochloride]
- EC50 values comparing MRGPRX2-MUT to MRGPRX2-WT cells [1]: demonstrated the LOF property
- B-scores (MUT) ([2]; Supplementary Table 2): 15.19
- Change of B-scores (%) ([2]; MRGPRX2-MUT versus MRGPRX2-WT cells, 10 μM, Supplementary Table 2): 414.49%
- B-scores (WT) ([3]; Supplementary Table 2): 2.95

Molecule: COc1cccc2c1C(=O)c1c(O)c3c(c(O)c1C2=O)C[C@@](O)(C(=O)CO)C[C@@H]3O[C@H]1C[C@H](N)[C@H](O)[C@H](C)O1 [Doxorubicin Hydrochloride]
- EC50 [4]: 0.131 µM

Molecule: CSCC[C@H](NC(=O)[C@H](CC(C)C)NC(=O)CNC(=O)[C@H](Cc1ccccc1)NC(=O)[C@H](Cc1ccccc1)NC(=O)[C@H](CCC(N)=O)NC(=O)[C@H](CCC(N)=O)NC(=O)[C@@H]1CCCN1C(=O)[C@H](CCCCN)NC(=O)[C@@H]1CCCN1C(=O)[C@@H](N)CCCNC(=N)N)C(N)=O [SP, substance P]
- calcium response in empty HEK293-Gα15 cells [5]: no increase in calcium response was detected

Molecule: CN[C@H](CC(C)C)C(=O)N[C@H]1C(=O)N[C@@H](CC(N)=O)C(=O)N[C@H]2C(=O)N[C@H]3C(=O)N[C@H](C(=O)N[C@H](C(=O)O)c4cc(O)cc(O)c4-c4cc3ccc4O)[C@H](O)c3ccc(c(Cl)c3)Oc3cc2cc(c3O[C@@H]2O[C@H](CO)[C@@H](O)[C@H](O)[C@H]2O[C@H]2C[C@](C)(N)[C@H](O)[C@H](C)O2)Oc2ccc(cc2Cl)[C@H]1O [vancomycin]
- calculated EC50 [6]: 60 mg/L
- B-score value ([3]; 10 μM): 16.36

- B-scores (MUT) ([2]; Table 1): -0.17
- B-scores (WT) ([3]; Supplementary Table 1): 20.22
- B-scores (WT) ([3]; Table 1): 20.22
Molecule: Bacitracin A
- β-hexosaminidase release [7]: 61.94%
- degranulation (β-hexosaminidase release) in LAD2 cells lacking MRGPRX2 [8]: decreased to the level of vehicle controls
